Assays:
PKA = PKA (Homo sapiens, UniProt P17612); assay: PKA kinase counter-screen; assay type: biochemical; settings: compound 400 μM, PKA 1 nM, ATP 5 μM, 30 min, 20 °C
Text: (§1) Fig. 5 Immunological evaluation of TPST1 inhibition towards substrate and a Ser/Thr protein kinase counter-screen. (A) Immunoblots evaluating TPST1 sulfotransferase activity in the presence of a panel of PAP- and PAPS-mimetic compounds. […] After termination of the reaction using SDS-PAGE sample buffer, tyrosine sulfation was visualised by immunoblotting using a monoclonal sulfotyrosine antibody (top panel), with equal GST-CC4-tide and TPST1 loading confirmed using an antibody to detect 6xHis tagged proteins (bottom panel). (B) Enzymatic inhibition of PKA catalytic activity by a panel of PAP- and PAPS-mimetic compounds. PKA kinase (1 nM) was incubated with ATP (5 μM) in the presence of the appropriate nucleoside analogue (400 μM) for 30 min at 20 °C. PKA activity was calculated in real-time using fluorescently-labelled substrate peptide (2 μM) and normalised to DMSO (4% v/v) or buffer control.[77] Data in B is mean and SD of 3 individual experiments. Staurosporine is included at 40 μM as a generic inhibitor of kinase activity.
Finally, a simple counter-screen was set up employing PKA. This was carried out in order to assess relative specificity for ST inhibition, and using the generic kinase inhibitor staurosporine A as a positive control and PAP and CoA as negative controls, neither of which bind nor inhibit PKA. Compounds were screened at 400 μM in the presence 1 nM PKA.

TPST1 = target: T1, TPST1 (Homo sapiens, UniProt O60507); assay: Immunoblot of GST-CC4tide tyrosine sulfation by TPST1 (anti-sulfotyrosine antibody); assay type: biochemical; settings: compound 400 μM, GST-CC4-tide 1 μg, TPST1 0.2 μg, PAPS 5 μM, 15 min
T1 construct: Human TPST1 (residues Lys43-Leu360) enzyme was purified as a recombinant protein; made in house
T1 sequence (O60507 43-360): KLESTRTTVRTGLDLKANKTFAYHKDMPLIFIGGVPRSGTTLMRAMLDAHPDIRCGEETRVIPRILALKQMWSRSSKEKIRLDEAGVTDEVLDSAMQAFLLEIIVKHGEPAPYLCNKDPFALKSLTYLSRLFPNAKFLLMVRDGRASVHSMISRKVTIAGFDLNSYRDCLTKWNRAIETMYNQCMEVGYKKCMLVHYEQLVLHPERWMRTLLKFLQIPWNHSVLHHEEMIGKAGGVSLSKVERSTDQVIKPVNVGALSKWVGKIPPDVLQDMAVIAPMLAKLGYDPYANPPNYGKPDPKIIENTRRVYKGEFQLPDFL
Method: In order to further assess TPST1 inhibition by 2′-deoxy-PAP and compounds 1–14 using a complementary assay, immunoblotting of a TPST1 protein substrate (GST-CC4tide) was implemented with a monoclonal antibody that specifically recognises sulfotyrosine, using PAP as positive control (Fig. 5A). Compounds were screened at 400 μM in the assay. In common with the […] enzyme assay using a synthetic peptide, a broad range of inhibitory activities was observed.
as §1, with “activity. […]” for “activity.”
All standard laboratory biochemicals, were purchased from Sigma, and were of the highest analytical quality.
5'-phosphosulfate, lithium salt hydrate, PAP (adenosine 3',5'-diphosphate, disodium salt), CoA (coenzymeA, sodium salt), ATP (adenosine 5’-triphosphate, disodium salt hydrate) were all purchased from Sigma and stored at -80 °C to minimise degradation.
Recombinant Protein Production and SDS-PAGE
Human TPST1 (residues Lys43-Leu360) enzyme was purified as a recombinant protein containing an N-terminal 6xHis tag as previously described. […]
pMAL-c2x plasmid encoding an N-terminal Maltose Binding Protein (MBP) affinity tag.6 Glutathione-S-transferase (GST) tagged CC4-tide ([…]) was cloned into pOPINJ (OPPF-UK) and […]
affinity purified from BL21 (DE3) pLysS E. coli using Glutathione-Sepharose 4B (GE Healthcare). 5 For SDS-PAGE, proteins were denatured in Laemmli sample buffer, heated at 95 °C for 5 min and then analysed by SDS-PAGE with 10% (v/v) polyacrylamide gels. Gels were stained and de-stained using a standard Coomassie Brilliant Blue protocol. To evaluate protein sulfation by immunoblotting, standard western blotting procedures were followed using monoclonal anti-sulfotyrosine ant ibody clone o-1C-A2 (Millipore) generated using a phage display procedure and sulfotyrosine selection peptide antigens7 in the presence of appropriate positive and negative controls, and modifications visua lised using ECL […]
Data was normalized […]
with respect to these control assays, with sulfate incorporation into the substr ate limited to ~ 20% to prevent depletion of PAPS and to ensure assay linearity. K m and IC50 values were determined by non-linear regression analysis with GraphPad Prism software. […]

inhibitory activity towards PKA (PKA)	suppression of tyrosine sulfation (immunoblot) (TPST1)	Compound
no activity	complete suppression	Nc1ncnc2c1ncn2[C@H]1C[C@H](OP(=O)(O)O)[C@@H](COP(=O)(O)O)O1 [2′-deoxy-PAP]
	inactive	Nc1ncnc2c1ncn2[C@H]1C[C@H](O)[C@@H](Cn2cc(P(=O)(O)O)nn2)O1 [Compound 11]
	partial suppression	Nc1ncnc2c1ncn2[C@H]1C[C@H](OP(=O)(O)O)[C@@H](Cn2cc(P(=O)(O)O)nn2)O1 [Compound 12]
	partial suppression	Nc1ncnc2c1ncn2[C@H]1C[C@H](O)[C@@H](Cn2cc(P(=O)(O)OCc3ccccc3)nn2)O1 [Compound 13]
